Assay results published in patent US9120749B2, “Quinoline derivatives and MELK inhibitors containing the same” (ONCOTHERAPY SCIENCE, INC., priority 2010, dated 2015).
Where a name gives a salt, the structure may show the parent alone.

Key:
22Rv1 cells = test: Cell-based assay: anti-proliferative activity, Cell Counting Kit-8, 72 hours (22Rv1); conditions: Homo sapiens
DU4475 cells = test: Cell-based assay: anti-proliferative activity, Cell Counting Kit-8, 72 hours (DU4475); conditions: Homo sapiens, DU-4475
MELK = MELK (Homo sapiens, UniProt Q14680); test: Kinase assay: MELK activity, phosphorylation of FITC-labeled histone H3 peptide measured by IMAP fluorescence polarization; assay type: biochemical; conditions: MELK kinase assay, IMAP fluorescence polarization, 50 micro-M ATP; read-out: IC50 (μM) (kinase assay)
In short: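 Polarization of fluorescence served as the signal for MELK turnover of FITC-conjugated histone H3 peptide. Binding solution quenched each reaction, and plates stood 0.5 hour at room temperature before reading.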

HT-1197 cells = test: Cell-based assay: anti-proliferative activity, Cell Counting Kit-8, 72 hours (HT-1197, negative control without MELK expression); conditions: Homo sapiens, HT1197, 72 h, HT1197 cells (negative control), 72 hours
In short: (§1)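 Target-specific cytotoxicity: seeded cells treated with MELK inhibitor candidates for 72 h, proliferation quantified via CCK-8, IC50 fitted.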

A549 cells = test: Cell-based assay: anti-proliferative activity, Cell Counting Kit-8, 72 hours (A549); conditions: Homo sapiens, A549, 72 h, 72 hours
In short: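 Cell Counting Kit-8 read-out of A549 growth after 72 hours of inhibitor exposure, cells plated in 96-well format. Values reported as IC50.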

T47D cells = test: Cell-based assay: anti-proliferative activity, Cell Counting Kit-8, 72 hours (T47D); conditions: Homo sapiens, T47D, 72 h
In short: as §1

Sequence of MELK (Q14680 whole entry, looked up): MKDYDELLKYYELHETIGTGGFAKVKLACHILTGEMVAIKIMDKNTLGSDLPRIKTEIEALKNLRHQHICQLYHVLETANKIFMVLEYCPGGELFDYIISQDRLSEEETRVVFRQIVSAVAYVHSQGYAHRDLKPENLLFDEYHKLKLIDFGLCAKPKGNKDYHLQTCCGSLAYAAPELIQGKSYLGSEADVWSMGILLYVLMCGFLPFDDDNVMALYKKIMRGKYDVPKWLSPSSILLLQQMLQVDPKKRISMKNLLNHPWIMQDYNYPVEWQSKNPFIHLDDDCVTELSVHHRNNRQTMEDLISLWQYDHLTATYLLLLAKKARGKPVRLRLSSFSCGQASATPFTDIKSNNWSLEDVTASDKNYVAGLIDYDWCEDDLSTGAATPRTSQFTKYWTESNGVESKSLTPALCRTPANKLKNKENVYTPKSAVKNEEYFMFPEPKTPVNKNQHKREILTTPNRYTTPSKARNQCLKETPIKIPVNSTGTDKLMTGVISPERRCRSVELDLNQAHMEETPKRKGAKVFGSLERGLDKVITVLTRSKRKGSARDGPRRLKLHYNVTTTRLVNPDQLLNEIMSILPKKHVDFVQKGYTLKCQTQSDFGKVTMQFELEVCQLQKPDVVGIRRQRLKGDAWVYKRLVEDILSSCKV

Row | IC50 (22Rv1 cells) [µM] | SMILES | IC50 (DU4475 cells) [µM] | IC50 (MELK) [µM] | IC50 (HT-1197 cells) [µM] | IC50 (A549 cells) [µM] | IC50 (T47D cells) [µM]
1 | 0.91 | CN(C)C[C@H]1CC[C@H](Nc2c(C(=O)C3CCCC3)cnc3ccc(-c4cc(Cl)c(O)c(Cl)c4)cc23)CC1 [Example 917, cyclopentyl(6-(3,5-dichloro-4-hydroxy-phenyl)-4-((1R,4R)-4-((dimethyl-amino)methyl)cyclohexyl)amino) quinolin-3-yl)methanone hydrochloride] | 0.19 |  | 3.3 | 0.68 | 0.7
2 | 2 | CC(N)C(=O)N[C@H]1CC[C@H](Nc2c(C(=O)C(C)(C)C)cnc3ccc(-c4cc(Cl)c(O)c(Cl)c4)cc23)CC1 (stereo partly drawn) [Example 928, 2-amino-N-((1R,4R)-4-((6-(3,5-dichloro-4-hydroxyphenyl)-3-pivaloyl-quinolin-4-yl)amino)cyclohexyl) propanamide hydrochloride] | 1.1 |  | 8.1 | 4.1 | 1.4
3 | 6.6 | CN(C)C[C@H]1CC[C@H](Nc2c(C(=O)C(C)(C)C)cnc3ccc(-c4cc(Cl)c(O)c(Cl)c4)cc23)CC1 [Example 918, 1-(6-(3,5-dichloro-4-hydroxyphenyl)-4-((1R,4R)-4-((dimethylamino)methyl)cyclohexyl)amino)quinolin-3-yl)-2,2-dimethylpropan-1-one hydrochloride] | 3.2 |  | 10 | 5.5 | 3
4 | 0.94 | CS(=O)(=O)c1cnc2ccc(-c3cc(Cl)c(O)c(Cl)c3)cc2c1N[C@H]1CC[C@H](CN2CCCC2)CC1 [Example 890, 2,6-dichloro-4-(3-(methylsulfonyl)-4-((1R,4R)-4-(pyrrolidin-1-ylmethyl)cyclohexyl)amino)quinolin-6-yl) phenol hydrochloride] | 0.35 |  | 3 | 1.1 | 1.3
5 | 0.78 | O=C(c1cnc2ccc(-c3cc(Cl)c(O)c(Cl)c3)cc2c1Nc1cccc(CCN2CCCC2)c1)C1CCCC1 [Example 927, cyclopentyl(6-(3,5-dichloro-4-hydroxy-phenyl)-4-((3-(2-(pyrrolidin-1-yl)ethyl)phenyl)amino)quinolin-3-yl) methanone hydrochloride] | 0.48 |  | 12 | 0.71 | 1.3
6 | 2 | CN(C)C1CCN(c2ccc(Nc3c(S(C)(=O)=O)cnc4ccc(-c5cc(Cl)c(O)c(Cl)c5)cc34)cn2)C1 (stereo not shown) [Example 906, 2,6-dichloro-4-(4-((6-(3-(dimethyl-amino)pyrrolidin-1-yl)pyridin-3-yl)amino)-3-(methylsulfonyl)quinolin-6-yl)phenol hydrochloride] | 0.66 |  | 9.3 | 2 | 1.3
7 | 14 | CC(=O)c1cnc2cc(C)c(-c3cc(Cl)c(O)c(Cl)c3)cc2c1N[C@H]1CC[C@H](CN2CCC(N)C2)CC1 (stereo partly drawn) [Example 872, 1-(4-((1R,4R)-4-((3-aminopyrrolidin-1-yl)methyl)cyclohexyl)amino)-6-(3,5-dichloro-4-hydroxyphenyl)-7-methylquinolin-3-yl)ethanone hydrochloride] | 0.26 |  | 100 | 100 | 17
8 | 0.3 | CCN(CC)CCO[C@H]1CC[C@H](Nc2c(C(C)=O)cnc3ccc(-c4cc(Cl)c(O)c(Cl)c4)cc23)CC1 [Example 868, 1-(6-(3,5-dichloro-4-hydroxyphenyl)-4-((1R,4R)-4-(2-(diethylamino)ethoxy)cyclohexyl)amino)quinolin-3-yl)ethanone hydrochloride] | 0.29 |  | 2.8 | 0.28 | 0.14
9 | 1.5 | CS(=O)(=O)c1cnc2ccc(-c3cc(Cl)c(O)c(Cl)c3)cc2c1Nc1cccc(CCN2CCCC2)c1 [Example 883, 2,6-dichloro-4-(3-(methylsulfonyl)-4-((3-(2-(pyrrolidin-1-yl)ethyl)phenyl)amino)quinolin-6-yl)phenol hydrochloride] | 0.53 |  | 100 | 1.9 | 1.4
10 | 0.65 | CC(=O)c1cnc2ccc(-c3cc(Cl)c(O)c(Cl)c3)cc2c1N[C@H]1CC[C@H](NC(=O)[C@@H](N)C(C)(C)C)CC1 [Example 922, (S)-N-((1r,4S)-4-((3-acetyl-6-(3,5-dichloro-4-hydroxyphenyl)quinolin-4-yl)amino)cyclohexyl)-2-amino-3,3-dimethylbutanamide hydrochloride] | 0.21 |  | 4.5 | 0.62 | 0.2
11 |  | CC(=O)c1cnc2ccc(-c3cc(Cl)c(O)c(Cl)c3)cc2c1Nc1cncc(CCN2CCCC2)c1 [Example 873, 1-(6-(3,5-dichloro-4-hydroxyphenyl)-4-((5-(2-(pyrrolidin-1-yl)ethyl)pyridin-3-yl)amino)quinolin-3-yl)ethanone hydrochloride] | 0.17 | 0.0067 | 100 | 0.35 | 100

Row | SMILES | IC50 (22Rv1 cells) [µM] | IC50 (DU4475 cells) [µM] | IC50 (MELK) [µM] | IC50 (HT-1197 cells) [µM] | IC50 (A549 cells) [µM] | IC50 (T47D cells) [µM]
12 | CCN(CC)CCO[C@H]1CC[C@H](Nc2c(C(C)=O)cnc3ccc(-c4cc(F)c(O)c(Cl)c4)cc23)CC1 [Example 869, 1-(6-(3-chloro-5-fluoro-4-hydroxyphenyl)-4-((1R,4R)-4-(2-(diethylamino)ethoxy)cyclohexyl)amino)quinolin-3-yl)ethanone hydrochloride] | 0.32 | 0.26 | 0.01 | 0.7 | 0.23 | 0.084
13 | CC(=O)c1cnc2ccc(-c3cc(F)c(O)c(Cl)c3)cc2c1Nc1cncc(CCN2CCCC2)c1 [Example 880, 1-(6-(3-chloro-5-fluoro-4-hydroxyphenyl)-4-((5-(2-(pyrrolidin-1-yl)ethyl)pyridin-3-yl)amino)quinolin-3-yl)ethanone hydrochloride] | 7.4 | 0.96 | 0.04 | 46 | 1.8 | 3.1
14 | CC(=O)c1cnc2ccc(-c3cc(F)c(O)c(Cl)c3)cc2c1Nc1cnc(C)c(CCN2CCCC2)c1 [Example 867, 1-(6-(3-chloro-5-fluoro-4-hydroxyphenyl)-4-((6-methyl-5-(2-(pyrrolidin-1-yl)ethyl)pyridin-3-yl)amino)quinolin-3-yl)ethanone] | 4.6 | 1.3 | 0.014 | 53 | 1.6 | 2.9
15 | CC(=O)c1cnc2ccc(-c3cc(Cl)c(O)c(Cl)c3)cc2c1N[C@H]1CC[C@H](C(=O)N2CCN(C)CC2)CC1 [Example 898, 1-(6-(3,5-dichloro-4-hydroxyphenyl)-4-((1R,4R)-4-(4-methylpiperazine-1-carbonyl)cyclohexyl)amino) quinolin-3-yl)ethanone hydrochloride] | 0.78 | 0.96 | 0.0044 | 3 | 0.87 | 0.44
16 | CC(=O)c1cnc2ccc(-c3ccc4nc[nH]c4c3)cc2c1Nc1ccc(OCCN(C)C)nc1 [Example 902, 1-(6-(1H-benzo[d]imidazol-6-yl)-4-((6-(2-(dimethylamino)ethoxy)pyridin-3-yl)amino)quinolin-3-yl) ethanone hydrochloride] | 3.1 | 14 | 0.042 | 12 | 2.9 | 3.3
17 | CS(=O)(=O)c1cnc2ccc(-c3cc(F)c(O)c(Cl)c3)cc2c1Nc1cccc(CCN2CCCC2)c1 [Example 879, 2-chloro-6-fluoro-4-(3-(methylsulfonyl)-4-((3-(2-(pyrrolidin-1-yl)ethyl)phenyl)amino)quinolin-6-yl)phenol hydrochloride] | 3 | 0.9 | 0.011 | 9 | 3.8 | 1.1
18 | CC(=O)c1cnc2cc(F)c(-c3cc(Cl)c(O)c(Cl)c3)cc2c1N[C@H]1CC[C@H](CN2CCCC2)CC1 [Example 923, 1-(6-(3,5-dichloro-4-hydroxyphenyl)-7-fluoro-4-((1R,4R)-4-(pyrrolidin-1-ylmethyl)cyclohexyl)amino)quinolin-3-yl)ethanone hydrochloride] | 0.29 | 0.2 | 0.007 | 2.5 | 0.39 | 0.63
19 | CC(=O)c1cnc2ccc(-c3ccc4nc[nH]c4c3)cc2c1N[C@H]1CC[C@H](CN(C)C)CC1 [Example 911, 1-(6-(1H-benzo[d]imidazol-6-yl)-4-((1R,4R)-4-((dimethylamino)methyl)cyclohexyl)amino)quinolin-3-yl) ethanone hydrochloride] | 5.4 | 10 | 0.13 | 13 | 3.2 | 10
20 | CN(C)CCOc1ccc(Nc2c(S(C)(=O)=O)cnc3ccc(-c4cc(F)c(O)c(Cl)c4)cc23)cn1 [Example 885, 2-chloro-4-(4-((6-(2-(dimethylamino)ethoxy)pyridin-3-yl)amino)-3-(methylsulfonyl)quinolin-6-yl)-6-fluorophenol hydrochloride] | 2.5 | 0.62 | 0.0083 | 10 | 3 | 0.7
